In patent publication US20260284002A1, “COMPOSITIONS AND METHODS OF CONTROLLING MAMMALIAN SATIETY” (VitaKey Inc., priority 2023, published 2026):

Test: Release of linoleic acid in simulated intestinal fluid with 0.2% (w/v) sodium taurocholate
Assay type: physicochemical
Settings: simulated intestinal fluid 37° C. with 0.2% (w/v) sodium taurocholate; FIG. 25B
Method: A mixture of 40% (w/w) linoleic acid, 30% (w/w) 27-Stearine, and 30% (w/w) CITREM was heated to 80° C. while stirring to allow for complete mixing, followed by cooling at 4° C. for 1 hour. […] Formulated linoleic acid microparticles were added to 3 of these 6 tubes, while unformulated linoleic acid was added to the remaining 3 tubes.

emulsification in bile-salt rich simulated intestinal fluid: rapidly emulsified
SMILES: CCCCC/C=C\C/C=C\CCCCCCCC(=O)O [unformulated linoleic acid, linoleic acid]
